# Measured values from patent US20070203098A1, “Pten Inhibitors” (priority 2004, published 2007).
# Counter-ions that a name gives are not always drawn. Like-named read-outs stand apart in the source and are kept apart here.
# What was measured:
# Type in all cases: biochemical
# PTEN [1] = molecular target: T1, PTEN (Homo sapiens, UniProt P60484); test: PTEN Inhibition Assay: General Screening
# PTEN [2] = molecular target: T1, PTEN; test: PTEN Inhibition Assay: IC50 Determinations
# PTP1B = molecular target: T2, PTP1B (Homo sapiens, UniProt P18031); test: PTP1B Inhibition Assay: IC50 Determinations
# T2 sequence (P18031 1-435): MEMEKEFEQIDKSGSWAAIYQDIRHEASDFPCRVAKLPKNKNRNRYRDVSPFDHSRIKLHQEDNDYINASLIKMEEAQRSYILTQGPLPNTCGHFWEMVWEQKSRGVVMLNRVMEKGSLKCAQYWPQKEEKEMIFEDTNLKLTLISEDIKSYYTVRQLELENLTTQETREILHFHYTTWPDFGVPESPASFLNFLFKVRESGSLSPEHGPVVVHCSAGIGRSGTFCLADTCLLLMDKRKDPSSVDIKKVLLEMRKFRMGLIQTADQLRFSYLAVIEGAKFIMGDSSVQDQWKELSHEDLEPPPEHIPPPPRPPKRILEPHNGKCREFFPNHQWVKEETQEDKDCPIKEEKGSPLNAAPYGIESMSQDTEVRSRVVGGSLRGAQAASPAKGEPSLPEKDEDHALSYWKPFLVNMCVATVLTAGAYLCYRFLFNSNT
# [3] = read-out: % Inhibition @ 250 uM
# [4] = 250 uM, Table 27 isatins, read-out: % Inhibition @250 uM
# [5] = read-out: % Inhibition at 250 uM
# [6] = 250 uM, Table 22 imidazoles, read-out: % Inhibition at 250 uM
# [7] = 250 uM, Table 24 known PTP inhibitors, read-out: % Inhibition at 250 uM
# [8] = 250 uM, Table 23 polyamides, read-out: % Inhibition @250 uM
# T1 sequence (P60484 whole entry, species assumed): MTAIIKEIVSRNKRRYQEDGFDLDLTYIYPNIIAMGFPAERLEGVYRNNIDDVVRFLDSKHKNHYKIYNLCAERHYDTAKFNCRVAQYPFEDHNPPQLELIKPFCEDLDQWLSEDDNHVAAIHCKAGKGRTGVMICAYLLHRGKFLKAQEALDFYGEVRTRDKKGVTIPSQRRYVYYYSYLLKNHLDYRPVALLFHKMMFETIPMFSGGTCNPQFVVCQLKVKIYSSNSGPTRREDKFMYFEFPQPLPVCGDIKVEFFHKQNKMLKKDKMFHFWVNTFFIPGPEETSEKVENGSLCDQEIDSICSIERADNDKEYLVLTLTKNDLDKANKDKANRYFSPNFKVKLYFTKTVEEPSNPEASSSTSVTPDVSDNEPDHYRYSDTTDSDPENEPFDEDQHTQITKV
molecule,measurement,setting,value
CCOC(=O)c1cccc(OCC(=O)Nc2ccc3c(c2)C(=O)C(=O)c2ccccc2-3)c1 [SF1811-000],inhibition at 250 µM,PTEN [1]; [3],98.6%
"NCCCC(O)(P(=O)([O-])O)P(=O)(O)O.[Na+] [CC1669-100, Alendronate, Sodium, Trihydrate, reference compound]",% Inhibition @ 250 uM in PTEN Assay,PTEN [1],minimal activity
same,inhibition at 250 µM,PTEN [1]; read-out: % Inhibition @ 250 uM in PTEN Assay,-0.9 to 20%
Cc1ccc(C(=O)Nc2ccc3c(c2)C(=O)C(=O)N3)cc1 [SF1778-000],inhibition at 250 µM,PTEN [1]; [4],98.5%
same,IC50,"PTEN [2]; Table 29, read-out: PTEN IC50",22.1 µM
same,IC50,"PTP1B; Table 29, read-out: PTP1B IC50",11 µM
COc1cccc(OCC(=O)Nc2ccc3c(c2)C(=O)C(=O)c2ccccc2-3)c1 [SF1788-000],inhibition at 250 µM,PTEN [1]; [3],96.9%
same,IC50,"PTEN [2]; Table 29, read-out: PTEN IC50",0.41 µM
same,IC50,"PTP1B; Table 29, read-out: PTP1B IC50",< 1 µM
"CC1(C)[C@H](C=C(Br)Br)[C@@H]1C(=O)OC(C#N)c1cccc(Oc2ccccc2)c1 (some centres unmarked) [SF1667-000, Deltamethrin, reference compound]",inhibition at 250 µM,PTEN [1]; [5],0.3%
"O=P(O)(O)Oc1cccc2ccccc12 [SF1684-100, α-Naphthyl Acid Phosphate, Monosodium Salt, reference compound]",inhibition at 250 µM,PTEN [1]; [5],11.2%
O=C(O)CCC(=O)Nc1ccc2c(c1)C(=O)C(=O)c1ccccc1-2 [SF1804-000],inhibition at 250 µM,PTEN [1]; [3],98.6%
same,IC50,PTEN [2],54.7 µM
same,IC50,PTP1B,1 to 10 µM
CC(C)(C)c1ccc(C(=O)NNC(=O)c2ccc(C(C)(C)C)cc2)cc1 [SF1733-000],inhibition at 250 µM,PTEN [1]; [6],15.9%
"Cc1ccc(C(=O)Nc2ccc(S(=O)(=O)O)c3cc(S(=O)(=O)O)cc(S(=O)(=O)O)c23)cc1NC(=O)c1cccc(NC(=O)Nc2cccc(C(=O)Nc3cc(C(=O)Nc4ccc(S(=O)(=O)O)c5cc(S(=O)(=O)O)cc(S(=O)(=O)O)c45)ccc3C)c2)c1 [SF1672-100, Suramin, Sodium Salt, reference compound]",inhibition at 250 µM,PTEN [1]; [7],-9.9%
O=C1C(=O)c2cc(NS(=O)(=O)c3cccs3)ccc2-c2ccccc21 [SF1798-000],inhibition at 250 µM,PTEN [1]; [3],93.6%
same,IC50,PTEN [2],0.369 µM
same,IC50,PTP1B,< 10 µM
"CC1(C(=O)O)C2CCC(O2)C1(C)C(=O)O (centres unmarked) [SF1679-000, Cantharidic Acid, reference compound]",inhibition at 250 µM,PTEN [1]; [5],2.7%
O=C(Nc1ccc2c(c1)C(=O)C(=O)c1ccccc1-2)c1cccs1 [SF1799-000],inhibition at 250 µM,PTEN [1]; [3],99.4%
same,IC50,PTEN [2],0.733 µM
same,IC50,PTP1B,< 10 µM
COc1ccccc1OCC(=O)Nc1ccc2c(c1)C(=O)C(=O)c1ccccc1-2 [SF1787-000],inhibition at 250 µM,PTEN [1]; [3],94.7%
same,IC50,"PTEN [2]; Table 29, read-out: PTEN IC50",0.548 µM
same,IC50,"PTP1B; Table 29, read-out: PTP1B IC50",< 1 µM
O=C(CNc1ccc2c(c1)C(=O)C(=O)c1ccccc1-2)OCc1ccccc1 [SF1807-000],inhibition at 250 µM,PTEN [1]; [3],93.9%
same,IC50,PTP1B,< 1 µM
"O=P(O)(O)OC(CO)CO [SF1685-100, β-Glycerophosphate, Disodium Salt, Pentahydrate, reference compound]",inhibition at 250 µM,PTEN [1]; [7],10.9%
O=C(COc1ccc(Cl)cc1)Nc1ccc2c(c1)C(=O)C(=O)c1ccccc1-2 [SF1790-000],inhibition at 250 µM,PTEN [1]; [3],99.2%
same,IC50,PTEN [2],2.6 µM
same,IC50,PTP1B,1 to 10 µM
O=C1Nc2ccc(I)cc2C1=O [SF1819-000],inhibition at 250 µM,PTEN [1]; [4],96%
same,IC50,"PTEN [2]; Table 29, read-out: PTEN IC50",33.6 µM
same,IC50,"PTP1B; Table 29, read-out: PTP1B IC50",< 10 µM
O=C1Nc2ccc(F)cc2C1=O [SF1820-000],inhibition at 250 µM,PTEN [1]; [4],94.6%
same,IC50,"PTEN [2]; Table 29, read-out: PTEN IC50",61.9 µM
same,IC50,"PTP1B; Table 29, read-out: PTP1B IC50",10 to 100 µM
O=C1C(=O)c2cc(NS(=O)(=O)c3ccc([N+](=O)[O-])cc3)ccc2-c2ccccc21 [SF1774-000],inhibition at 250 µM,PTEN [1]; [3],98.6%
same,IC50,"PTEN [2]; Table 29, read-out: PTEN IC50",0.214 µM
same,IC50,"PTP1B; Table 29, read-out: PTP1B IC50",0.331 µM
Cc1cc(C)cc(S(=O)(=O)Nc2ccc3c(c2)C(=O)C(=O)c2ccccc2-3)c1 [SF1801-000],inhibition at 250 µM,PTEN [1]; [3],95.3%
same,IC50,PTEN [2],1.01 µM
same,IC50,PTP1B,< 10 µM
Cc1cccc(-n2cnc(C(=O)NNC(=O)c3ccc(C(C)(C)C)cc3)c2)n1 [SF1708-000],inhibition at 250 µM,PTEN [1]; [6],57 to 95%
same,IC50,"PTEN [2]; Table 29, read-out: PTEN IC50",50 µM
same,IC50,"PTP1B; Table 29, read-out: PTP1B IC50",60 µM
CCOC(=O)C(=O)Nc1ccc2c(c1)C(=O)C(=O)c1ccccc1-2 [SF1786-000],inhibition at 250 µM,PTEN [1]; [3],99.8%
same,IC50,PTEN [2],0.692 µM
same,IC50,PTP1B,< 1 µM
O=C(CCc1ccccc1[N+](=O)[O-])Nc1ccc2c(c1)C(=O)C(=O)N2 [SF1812-000],inhibition at 250 µM,PTEN [1]; [4],40.5%
same,IC50,"PTP1B; Table 29, read-out: PTP1B IC50",> 10 µM
CCOC(=O)CNC(=O)C(c1ccc2ncccc2c1)N(CC1CCCO1)C(=O)c1snc(C(N)=O)c1N (centres unmarked) [SF1566-000],inhibition at 250 µM,PTEN [1]; [8],70.6%
O=C1C(=O)N(Cc2ccc(Cl)cc2Cl)c2ccc([N+](=O)[O-])cc21 [SF1783-000],inhibition at 250 µM,PTEN [1]; [4],97.8%
same,IC50,"PTEN [2]; Table 29, read-out: PTEN IC50",4.6 µM
same,IC50,"PTP1B; Table 29, read-out: PTP1B IC50",1.1 µM
O=C(CCCc1ccccc1)Nc1ccc2c(c1)C(=O)C(=O)c1ccccc1-2 [SF1785-000],inhibition at 250 µM,PTEN [1]; [3],97.9%
same,IC50,PTEN [2],5 µM
same,IC50,PTP1B,1 to 10 µM
O=C1C(=O)c2cc([N+](=O)[O-])ccc2-c2ccccc21 [SF1722-000],inhibition at 250 µM,PTEN [1]; [3],99.3%
same,IC50,PTEN [2],4 µM
O=C1Nc2ccc(Cl)cc2C1=O [SF1816-000],inhibition at 250 µM,PTEN [1]; [4],95%
same,IC50,"PTEN [2]; Table 29, read-out: PTEN IC50",80.7 µM
same,IC50,"PTP1B; Table 29, read-out: PTP1B IC50",10 to 100 µM
O=C(CCC(=O)NNC(=O)COc1ccc(Cl)cc1)NNC(=O)COc1ccc(Cl)cc1 [SF1516-000],inhibition at 250 µM,PTEN [1]; [8],35.3%
CC(C)(C)c1ccc(C(=O)Nc2ccc3c(c2)C(=O)C(=O)c2ccccc2-3)cc1 [SF1803-000],inhibition at 250 µM,PTEN [1]; [3],83%
same,IC50,"PTEN [2]; Table 29, read-out: PTEN IC50",14.6 µM
same,IC50,"PTP1B; Table 29, read-out: PTP1B IC50",< 1 µM
"CC1(C)C(C=C(Cl)Cl)[C@H]1C(=O)O[C@@H](C#N)c1cccc(Oc2ccccc2)c1 (stereo in doubt) [SF1687-000, Cypermethrin, reference compound]",inhibition at 250 µM,PTEN [1]; [5],-5.9%
O=C1CC(S(=O)(=O)O)c2ccccc2C1=O (centres unmarked) [SF1735-000],IC50,"PTEN [2]; Table 28, read-out: PTEN IC50",20 µM
same,IC50,"PTP1B; Table 29, read-out: PTP1B IC50",> 250 µM
O=C1C(=O)c2ccccc2-c2ccccc21 [SF1721-000],inhibition at 250 µM,PTEN [1]; [3],99.7%
same,IC50,PTEN [2],3.4 µM
same,IC50,PTP1B,17 µM
O=C(COc1ccccc1)NC1CCCCC1NC(=O)COc1ccccc1 (centres unmarked) [SF1647-000],inhibition at 250 µM,"PTEN [1]; 250 uM, Table 16, read-out: % Inhibition @ 250 uM",2.2%
O=C(O)C(=O)Nc1ccc2c(c1)C(=O)C(=O)c1ccccc1-2 [SF1806-000],inhibition at 250 µM,PTEN [1]; [3],98.1%
same,IC50,PTEN [2],12.1 µM
same,IC50,PTP1B,1 to 10 µM
CC(C)c1ccccc1OCC(=O)Nc1ccc2c(c1)C(=O)C(=O)c1ccccc1-2 [SF1772-000],inhibition at 250 µM,PTEN [1]; [3],99.4%
same,IC50,"PTEN [2]; Table 29, read-out: PTEN IC50",0.435 µM
same,IC50,"PTP1B; Table 29, read-out: PTP1B IC50",0.681 µM
Nc1nonc1NC(=O)N/N=C/CCC/C=N/NC(=O)Nc1nonc1N [SF1567-000],inhibition at 250 µM,PTEN [1]; [8],60.2%
O=C1C=CC(=O)c2ccccc21 [SF1737-000],IC50,PTEN [2],43 µM
"CC(C)=C[C@@H]1[C@H](C(=O)OCc2coc(Cc3ccccc3)c2)C1(C)C (mixture of isomers) [SF1671-000, 5-Benzyl-3-furylmethyl (1R,S)-cis,trans-chrysanthemate, reference compound]",inhibition at 250 µM,PTEN [1]; [5],9.6%
CCOC(=O)Nc1ccc2c(c1)C(=O)C(=O)c1ccccc1-2 [SF1808-000],inhibition at 250 µM,PTEN [1]; [3],96.2%
same,IC50,PTP1B,< 1 µM
CCOC(=O)CNC(=O)C(c1ccc(O)cc1)N(C(=O)c1snc(C(N)=O)c1N)c1ccc2c(c1)OCO2 (centres unmarked) [SF1552-000],inhibition at 250 µM,PTEN [1]; [8],52.4%
"O=C(O)[C@@H]1[C@H](C(=O)O)[C@H]2CC[C@@H]1O2 [SF1686-000, Endothall, reference compound]",inhibition at 250 µM,PTEN [1]; [5],-1.2%
O=C1Nc2c(Cl)ccc(Cl)c2C1=O [SF1822-000],inhibition at 250 µM,PTEN [1]; [4],97.3%
same,IC50,"PTEN [2]; Table 29, read-out: PTEN IC50",24.5 µM
"CC12CCC(C)(O1)C(C(=O)O)C2C(=O)O (centres unmarked) [SF1676-000, 1,4-Dimethylendothall, reference compound]",inhibition at 250 µM,PTEN [1]; [5],3.3%
"CC(C)C(C(=O)OC(C#N)c1cccc(Oc2ccccc2)c1)c1ccc(Cl)cc1 (centres unmarked) [SF1683-000, Fenvalerate, reference compound]",inhibition at 250 µM,PTEN [1]; [5],-25.5%
"Monoperoxo(picolinato)oxovanadate(V) [SF1677-000, reference compound]",% Inh. @ 250 uM in PTEN Assay,PTEN [1],96.9%
O=C1C=Cc2ccccc2C1=O [SF1736-000],IC50,PTEN [2],21 µM
Oc1cc2ccccc2c2ccccc12 [SF1734-000],IC50,PTEN [2],33 µM
